# According to PubChem BioAssay (NCI):
#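 Tested at 5 concentrations; 48 h exposure; 96-well plates; endpoints linearly interpolated, else capped at highest concentration. TGI: concentration producing complete growth inhibition.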
# Experiments:
# Experiment in all cases: DTP human tumour cell line panel, 48 h
# [1] = system: 786-0 renal
# [2] = system: A549 NSCLC
# [3] = system: ACHN renal
# [4] = system: CAKI-1 renal
# [5] = system: CCRF-CEM leukemia
# [6] = system: COLO 205 colon
# [7] = system: DU-145 prostate
# [8] = system: EKVX NSCLC
# [9] = system: HCC-2998 colon
# [10] = system: HCT-116 colon
# [11] = system: HCT-15 colon
# [12] = system: HL-60(TB) leukemia
# [13] = system: HOP-62 NSCLC
# [14] = system: HOP-92 NSCLC
# [15] = system: HS 578T breast
# [16] = system: HT29 colon
# [17] = system: IGROV1 ovarian
# [18] = system: K-562 leukemia
# [19] = system: KM12 colon
# [20] = system: LOX IMVI melanoma
# [21] = system: M14 melanoma
# [22] = system: MALME-3M melanoma
# [23] = system: MCF7 breast
# [24] = system: MDA-MB-231 breast
# [25] = system: MDA-MB-435
# [26] = system: MDA-N
# [27] = system: MOLT-4 leukemia
# [28] = system: NCI-H226 lung
# [29] = system: NCI-H23 lung
# [30] = system: NCI-H460 lung
# [31] = system: NCI-H522 lung
# [32] = system: NCI/ADR-RES ovarian
# [33] = system: OVCAR-3 ovarian
# [34] = system: OVCAR-4 ovarian
# [35] = system: OVCAR-5 ovarian
# [36] = system: OVCAR-8 ovarian
# [37] = system: PC-3 prostate
# [38] = system: RPMI-8226 leukemia
# [39] = system: RXF 393 renal
# [40] = system: SF-268 CNS
# [41] = system: SF-295 CNS
# [42] = system: SF-539 CNS
# [43] = system: SK-MEL-2 melanoma
# [44] = system: SK-MEL-28 melanoma
# [45] = system: SK-MEL-5 melanoma
# [46] = system: SK-OV-3 ovarian
# [47] = system: SN12C renal
# [48] = system: SNB-75 CNS
# [49] = system: SR leukemia
# [50] = system: SW-620 colon
# [51] = system: T-47D breast
# [52] = system: TK-10 renal
# [53] = system: U251 CNS
# [54] = system: UACC-257 melanoma
# [55] = system: UACC-62 melanoma
# [56] = system: UO-31 renal
# [57] = system: A498 renal
# [58] = system: SNB-19 CNS
smiles,measurement,setting,value
Nc1c(Cl)c([N+](=O)[O-])cc2c1OCCCCO2,TGI,[1],> 100 µM
same,TGI,[2],> 100 µM
same,TGI,[3],> 100 µM
same,TGI,[4],> 100 µM
same,TGI,[5],> 100 µM
same,TGI,[6],> 100 µM
same,TGI,[7],> 100 µM
same,TGI,[8],> 100 µM
same,TGI,[9],> 100 µM
same,TGI,[10],> 100 µM
same,TGI,[11],> 100 µM
same,TGI,[12],> 100 µM
same,TGI,[13],> 100 µM
same,TGI,[14],> 100 µM
same,TGI,[15],> 100 µM
same,TGI,[16],> 100 µM
same,TGI,[17],> 100 µM
same,TGI,[18],> 100 µM
same,TGI,[19],> 100 µM
same,TGI,[20],> 100 µM
same,TGI,[21],> 100 µM
same,TGI,[22],> 100 µM
same,TGI,[23],> 100 µM
same,TGI,[24],> 100 µM
same,TGI,[25],> 100 µM
same,TGI,[26],> 100 µM
same,TGI,[27],> 100 µM
same,TGI,[28],> 100 µM
same,TGI,[29],> 100 µM
same,TGI,[30],> 100 µM
same,TGI,[31],5.28 µM
same,TGI,[32],> 100 µM
same,TGI,[33],> 100 µM
same,TGI,[34],> 100 µM
same,TGI,[35],> 100 µM
same,TGI,[36],> 100 µM
same,TGI,[37],> 100 µM
same,TGI,[38],> 100 µM
same,TGI,[39],> 100 µM
same,TGI,[40],> 100 µM
same,TGI,[41],> 100 µM
same,TGI,[42],> 100 µM
same,TGI,[43],> 100 µM
same,TGI,[44],> 100 µM
same,TGI,[45],> 100 µM
same,TGI,[46],55.6 µM
same,TGI,[47],> 100 µM
same,TGI,[48],93 µM
same,TGI,[49],> 100 µM
same,TGI,[50],> 100 µM
same,TGI,[51],> 100 µM
same,TGI,[52],> 100 µM
same,TGI,[53],8.48 µM
same,TGI,[54],> 100 µM
same,TGI,[55],> 100 µM
same,TGI,[56],> 100 µM
CC1=CCC[C@]2(C)C1=CC(=O)O[C@H]2c1ccoc1,TGI,[1],> 100 µM
same,TGI,[57],> 100 µM
same,TGI,[2],> 100 µM
same,TGI,[3],> 100 µM
same,TGI,[4],> 100 µM
same,TGI,[5],> 100 µM
same,TGI,[6],> 100 µM
same,TGI,[7],> 100 µM
same,TGI,[8],> 100 µM
same,TGI,[9],> 100 µM
same,TGI,[10],> 100 µM
same,TGI,[11],> 100 µM
same,TGI,[12],> 100 µM
same,TGI,[13],> 100 µM
same,TGI,[14],> 100 µM
same,TGI,[15],> 100 µM
same,TGI,[16],> 100 µM
same,TGI,[17],> 100 µM
same,TGI,[18],> 100 µM
same,TGI,[19],> 100 µM
same,TGI,[20],> 100 µM
same,TGI,[22],> 100 µM
same,TGI,[23],> 100 µM
same,TGI,[24],> 100 µM
same,TGI,[25],> 100 µM
same,TGI,[26],> 100 µM
same,TGI,[27],> 100 µM
same,TGI,[28],> 100 µM
same,TGI,[29],> 100 µM
same,TGI,[30],> 100 µM
same,TGI,[31],> 100 µM
same,TGI,[32],> 100 µM
same,TGI,[33],> 100 µM
same,TGI,[34],> 100 µM
same,TGI,[35],> 100 µM
same,TGI,[36],> 100 µM
same,TGI,[37],> 100 µM
same,TGI,[38],> 100 µM
same,TGI,[39],> 100 µM
same,TGI,[40],> 100 µM
same,TGI,[41],> 100 µM
same,TGI,[43],> 100 µM
same,TGI,[44],> 100 µM
same,TGI,[45],> 100 µM
same,TGI,[46],> 100 µM
same,TGI,[47],> 100 µM
same,TGI,[58],> 100 µM
same,TGI,[48],> 100 µM
same,TGI,[49],> 100 µM
same,TGI,[50],> 100 µM
same,TGI,[51],> 100 µM
same,TGI,[52],> 100 µM
same,TGI,[53],> 100 µM
same,TGI,[54],> 100 µM
same,TGI,[55],> 100 µM
same,TGI,[56],> 100 µM
